The results in this text go back to PubChem BioAssay (NCI).

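In this assay, cells in 96-well plates receive the compound at five concentrations for 48 hours. Endpoints are linearly interpolated between the surrounding concentrations. GI50 marks 50% less growth. TGI: concentration producing complete growth inhibition.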

What all share (assay): NCI tumour cell line growth inhibition, 48 h
In assay [1] the test system is CCRF-CEM leukemia.
Assay [2] relates to T-47D breast.
In assay [3] the test system is A549 NSCLC.
Assay [4] has as its system BT-549 breast.
Assay [5] has as its system MDA-MB-231 breast.
The subject of assay [6] is RXF 393 renal.
Assay [7] deals with COLO 205 colon.
Assay [8] concerns OVCAR-4 ovarian.
The test system of assay [9] is HL-60(TB) leukemia.
Assay [10] relates to HS 578T breast.

Turning to `Cc1nc2c(cc1C(=O)NN)c(=O)n(C)c(=O)n2C`, the TGI in assay [1], in assay [2], in assay [3], in [4], in assay [5] and in assay [6] was more than 100 µM in each case. In addition, the TGI in assay [7] and in assay [8] was more than 100 µM each time.
As to `COc1c(-c2cc(C)c(Cl)c(=O)[nH]2)c(O)c(OC)c2occc12`, the TGI in [9], in [2], in [3], in [5], in [6] and in assay [7] was more than 100 µM in each case. In addition, in assay [8], the TGI is more than 100 µM.
In the case of `O=C1COC(c2ccccc2O)=NN1CCCN1CCCC1`, the TGI in assay [10], in assay [2], in assay [3], in assay [4], in assay [5] and in assay [6] was more than 100 µM in each case. The TGI in assay [7] and in assay [8] was more than 100 µM in each case.
With `Cc1cn(C2CC(O)C(CO)C2C)c(=O)[nH]c1=O` (stereo not given), the TGI in assay [1], in assay [9], in assay [3], in assay [6], in assay [7] and in assay [8] was more than 100 µM in each case.
In the case of `O=S(=O)(c1cc(Cl)ccc1Cl)N1CCN(S(=O)(=O)c2cc(Cl)ccc2Cl)CC1`, the TGI was 83.4 µM in assay [10]; more than 100 µM in assay [2]; more than 100 µM in assay [3]; more than 100 µM in assay [4]; more than 100 µM in assay [5]; more than 100 µM in assay [6].
With `C(=N\Nc1ncc(-c2cc3cc4c(cc3o2)OCO4)s1)/c1c[nH]c2ccccc12`, the GI50 in assay [1] was 0.392 µM; in [9] it was 2.18 µM; in [10] it was 2.02 µM; in assay [2] it was 2.09 µM; in [3], 0.487 µM; in assay [4], 1.32 µM. Besides, the GI50 was 1.33 µM in [6] and 0.503 µM in assay [8]. Besides, the TGI in assay [1] was more than 100 µM; in assay [9] it was 14.4 µM; in assay [10] it was 6.02 µM; in assay [2] it was more than 100 µM; in [3] it was 3.1 µM; in assay [4] it was 7.55 µM. Moreover, the TGI is 2.78 µM in assay [6] and 4.1 µM in assay [8].
With `CSC1=Nc2ccccc2-c2nc(-c3ccccc3)cc(-c3ccccc3)c2C1`, the TGI is more than 100 µM in assay [1]; more than 100 µM in [9]; 76.4 µM in assay [2]; more than 100 µM in assay [3]; more than 100 µM in assay [4]; 41.6 µM in [5]. In addition, the TGI is 45 µM in assay [6], more than 100 µM in assay [7] and more than 100 µM in assay [8].
As to `CCN(CC)CCCCCCCCNc1c2ccc(Cl)cc2nc2ccc(OC)cc12`, the GI50 in [1] was 0.634 µM; in assay [9], 2.04 µM; in assay [10] it was 2.82 µM; in assay [2], 2.82 µM; in assay [3] it was 1.56 µM; in assay [5], 1.48 µM. Moreover, the GI50 was 0.763 µM in [6], 1.43 µM in assay [7] and 1.14 µM in assay [8]. Moreover, the TGI was 6.32 µM in assay [1]; 4.08 µM in assay [9]; more than 100 µM in assay [10]; 6.91 µM in assay [2]; 3.62 µM in assay [3]; 3.09 µM in assay [5]. The TGI in [6] is 2.09 µM; in assay [7], 2.88 µM; in assay [8] it was 2.71 µM.
`CCN1CCN(C(=O)[C@]23CC[C@@H](C)[C@H](C)[C@@H]2C2=CC[C@@H]4[C@@]5(C)C/C(=C/c6cccnc6)C(=O)C(C)(C)[C@@H]5CC[C@@]4(C)[C@]2(C)CC3)CC1`: the GI50 in assay [1] was 2.78 µM; in assay [9] it was 2.08 µM; in [10], 1.91 µM; in [2] it was 2.79 µM; in assay [3] it was 3.15 µM; in assay [5] it was 1.75 µM. Further, the values for the GI50 in assay [6], in assay [7] and in assay [8] were 1.45 µM, 2.19 µM and 2.57 µM, respectively. The TGI turned out to be 8.97 µM in [1]; 5 µM in assay [9]; 4.77 µM in assay [10]; 13.4 µM in [2]; 16.8 µM in [3]; 3.59 µM in assay [5]. The TGI stood at 2.83 µM in assay [6], 5.12 µM in assay [7] and 7.36 µM in assay [8].
As for `C[C@]12CC[C@H]3[C@@H](CCC4=CC(=O)C=C[C@@]43O)[C@@H]1CCC2=O`, the TGI in assay [1], in assay [2], in assay [3], in assay [4], in assay [5] and in assay [6] was more than 100 µM throughout. Moreover, in assay [7], the TGI is more than 100 µM.
For the compound `Cc1ccccc1N=C(N)NC#N`, the TGI in assay [1], in assay [9], in assay [10], in assay [3], in assay [4] and in [5] was more than 100 µM in each case. The TGI in [6], in assay [7] and in assay [8] was more than 100 µM in each case.
With `Nn1c(Cc2ccc(Cl)cc2)n[nH]c1=O`, the TGI in assay [1], in assay [9], in assay [10], in [2], in assay [3] and in [5] was more than 100 µM each time. Further, the TGI in assay [6], in assay [7] and in [8] was more than 100 µM each time.
As to `CC(=O)NC1(C)CCC(C(C)(C)NC(C)=O)CC1` (stereo not given), the TGI in [1], in assay [9], in [10], in assay [3], in assay [4] and in assay [5] was more than 100 µM each time. For the same compound, the TGI in [6], in assay [7] and in assay [8] was more than 100 µM throughout.
`Nc1ccc2c(c1)C1Oc3ccccc3CC1CO2` (stereo not given): the TGI in assay [1], in assay [9], in [2], in [3], in assay [4] and in assay [5] was more than 100 µM in each case. The TGI in assay [7] was more than 100 µM.
Turning to `O=S(=O)(c1ccccc1)n1c(C(O)c2ccncc2)cc2ccccc21` (stereo not given), the TGI in [1], in [2], in assay [3], in [4], in assay [5] and in assay [6] was more than 100 µM throughout. Also, the TGI in assay [7] and in assay [8] was more than 100 µM throughout.
With `Cc1cc(S(=O)(=O)Nc2nc3ccsc3c(=O)n2N)c(S)cc1Cl`, the TGI in [1], in assay [9], in assay [3], in [4], in assay [5] and in [7] was more than 100 µM throughout. Further, in assay [8], the TGI was more than 100 µM.
With `CC1(C)CCC[C@]2(C)[C@@H]1CC[C@@]13O[C@@H]1C1=C(CO)C(=O)O[C@]14O[C@@H]4[C@@H]23`, the TGI is more than 100 µM in assay [2]; 23.5 µM in assay [3]; 31.8 µM in assay [4]; 35.9 µM in assay [5]; 25.2 µM in assay [6]; 40.3 µM in assay [7]. In addition, the TGI in assay [8] came out at 30 µM.
With `CC(=O)Nc1ccc(S(=O)(=O)Nc2nnc(S(N)(=O)=O)s2)cc1`, the TGI in assay [9], in assay [2], in assay [3], in assay [4], in assay [5] and in assay [6] was more than 100 µM throughout. For the same compound, the TGI in assay [7] and in assay [8] was more than 100 µM throughout.
For `CC1(C)O[C@H](C(=O)O)[C@@H](C(=O)O)O1`, the TGI in assay [1], in assay [10], in [2], in [3], in [5] and in assay [6] was more than 100 µM each time. For the same compound, the TGI in assay [7] and in assay [8] was more than 100 µM each time.
On to `c1ccc2c(c1)c1c(n2CCOCCN2CCCCC2)CCCC1`, for which the TGI in [1] stood at 29.6 µM; in assay [9] it was 8.33 µM; in [10], 32.1 µM; in assay [2], 35.2 µM; in assay [3] it was 30.1 µM; in [5], 24.4 µM. Moreover, the TGI came out at 26 µM in assay [7] and 25.3 µM in assay [8].
Regarding `CCOC(=O)C1=CN=C2C(=O)N(c3ccccc3)N(C)C2(C)C1=N` (stereo not given), the TGI in assay [1], in assay [9], in assay [3], in [4], in [5] and in [6] was more than 100 µM each time. Besides, the TGI in assay [7] and in assay [8] was more than 100 µM each time.
`CCOC(=O)c1c(SC(=O)c2cc(OC)c(OC)c(OC)c2)n(-c2ccccc2)c(=S)n(-c2ccccc2)c1=O`: the TGI in assay [1], in [9], in assay [10], in [2], in assay [3] and in [5] was more than 100 µM in each case. The TGI in assay [6], in assay [7] and in [8] was more than 100 µM each time.
For `O=C1C=Cc2c(Cl)sc(Cl)c21`, the TGI was 1.36 µM in [1]; more than 22.7 µM in assay [2]; more than 90.6 µM in assay [3]; 7.92 µM in assay [4]; more than 100 µM in assay [5]; 4.28 µM in assay [6]. Further, in assay [8], the TGI was determined as 37.1 µM.
Take `O=[N+]([O-])C(/C(Cl)=C(/Cl)N1CCOCC1)=C1\NCCO1`: the TGI in assay [1], in [10], in assay [2], in assay [3], in assay [4] and in assay [5] was more than 100 µM each time. Moreover, the TGI in assay [7] and in assay [8] was more than 100 µM each time.
As to `COc1ccc2c(c1)OCC1(O)Cc3ccccc3OC21` (stereo not given), the TGI in [1], in assay [2], in assay [3], in assay [4], in [5] and in assay [7] was more than 100 µM throughout. This compound also yielded a TGI in assay [8] of more than 100 µM.
Turning to `CO/C(=N\N=C\c1ccc(Cl)cc1)c1ccncc1`, the TGI in [1], in assay [9], in assay [3], in assay [6], in [7] and in [8] was more than 100 µM in each case.
Take `N/C(=N\N=C\c1ccc2c(c1)OCO2)NO`: the TGI was 51.1 µM in [1]; 36 µM in [9]; more than 100 µM in [10]; more than 100 µM in [2]; more than 100 µM in [3]; more than 100 µM in [5]. The values for the TGI in assay [6], in assay [7] and in assay [8] were more than 100 µM, 40.3 µM and more than 100 µM, respectively.
Consider `CN(C)N=Nc1ccc([N+](=O)[O-])cc1C(N)=O`, for which the TGI in [1], in assay [3], in [6], in [7] and in [8] was more than 100 µM throughout.
For the compound `CC(C)(C)C#C[P+](c1ccccc1)(c1ccccc1)c1ccccc1`, the TGI in assay [1] turned out to be 0.699 µM; in assay [9], 0.0865 µM; in assay [3] it was 1.91 µM; in assay [6], 1.37 µM; in assay [7], 0.397 µM; in assay [8], 1.42 µM.
Regarding `CCSc1ncnc2c(C3OC(CO)C(O)C3O)nsc12` (stereo not given), the TGI in assay [1], in [9], in assay [10], in [2], in [3] and in assay [5] was more than 100 µM in each case. In addition, the TGI in assay [6], in assay [7] and in assay [8] was more than 100 µM each time.
Consider `COc1ccc2oc(S(=O)(=O)N3CC(CCl)c4ccc([N+](=O)[O-])cc43)cc2c1` (stereo not given), for which the TGI is more than 100 µM in assay [1]; more than 100 µM in assay [10]; 79.8 µM in assay [2]; 18.1 µM in assay [3]; 16.4 µM in assay [4]; 1.23 µM in assay [5]. Further, the results for the TGI in assay [7] and in assay [8] were 0.322 µM and more than 100 µM, respectively.
